According to ChEMBL document CHEMBL1201862, “PubChem BioAssay data set” (2004):
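1) Cells in 96-well plates. 2) Compound, 48 h, 5 concentrations. 3) Linear interpolation between surrounding doses. 4) Unreached endpoint = highest concentration. GI50: concentration for 50% inhibition of growth.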 Calls of active or inactive are those of the source. Rule as the data show it: active = GI50 up to about 1.1 µM and inactive = higher.

How the values were obtained:
Assay in all cases: NCI-60 cell line screen, 48 h
[1] = test system: 786-0
[2] = test system: CAKI-1
[3] = test system: HCC 2998
[4] = test system: MCF7
[5] = test system: MDA-MB-231
[6] = test system: MDA-N
[7] = test system: MOLT-4
[8] = test system: NCI-H460
[9] = test system: NCI/ADR-RES
[10] = test system: OVCAR-3
[11] = test system: PC-3
[12] = test system: RPMI-8226
[13] = test system: SF-295
[14] = test system: SK-MEL-2
[15] = test system: SK-MEL-5
[16] = test system: SK-OV-3
[17] = test system: SN12C
[18] = test system: SR
[19] = test system: SW-620
[20] = test system: UACC-62

Measured: GI50

C=C(Cl)C(Cl)(CBr)CCCC(C)(C)Cl (stereo not given)
inactive: [1] 5.04 µM | [2] 1.99 µM | [3] 15.9 µM | [4] 7.1 µM | [5] > 38.6 µM | [6] 28.1 µM | [7] > 55.6 µM | [8] 5.71 µM | [9] 30.4 µM | [10] 2.47 µM | [11] 3.25 µM | [12] 1.28 µM | [13] 7.55 µM | [14] 11.4 µM | [15] 29.9 µM | [16] > 100 µM | [17] 60.8 µM | [18] > 53 µM | [19] 20.4 µM | [20] 17.4 µM

CCN1C(=O)c2ccccc2C1(O)c1ccc(Cl)cc1 (stereo not given)
inactive: [1] 76.9 µM | [2] > 100 µM | [3] > 100 µM | [4] 47.6 µM | [5] > 100 µM | [6] > 100 µM | [7] 47.3 µM | [8] 89.7 µM | [9] 16.5 µM | [10] 31.1 µM | [11] 24.7 µM | [12] 61.9 µM | [13] 18.4 µM | [14] 18.7 µM | [15] 31.6 µM | [16] 24.4 µM | [17] > 100 µM | [18] 41.2 µM | [19] > 100 µM | [20] 79.1 µM
